Measured values from patent publication US12679825B2, “Crystalline and amorphous forms of a δ-opioid modulator” (Trevena, Inc., priority 2020, dated 2026).
Values after ≈ are worked out from the molar mass of the structure shown. “Also recorded” adds a separate entry of the source.

How the values were obtained:
Format in all cases: physicochemical
[1] = Potentiometric (pH-metric) pKa; settings: pH 2.0-12.0, methanol-water co-solvent, Yasuda-Shedlovsky extrapolation
Procedure: (§1) Crystalline forms of the compound of Formula I, including the crystalline Form I, were analyzed using pKa and LogP. An automated titrator system with an incorporated UV-Vis spectrometer (SiriusT3™, Pion Inc.) was used to acquire the spectrometric and potentiometric data. The optical system consisted of a photodiode array detector with a deuterium lamp and a fiber optic dip probe.
The titrator module consisted of a temperature controller (by Peltier device with in-situ thermocouple), pH electrode, an overhead stirrer, and motorized dispensers for the automatic delivery of assay titrants and reagents via capillaries. The instrumentation was operated using SiriusT3Control software (V2.0). Data processing and generation of the reported pKa and logP values was carried out using SiriusT3Refine software (V2.0). The titrants used were 0.5 M hydrochloric acid and 0.5 M potassium hydroxide, standardized using potassium hydrogen phthalate. ACS or HPLC grade methanol cosolvent was used for pKa determination. […]
An additional potentiometric assay was carried out to confirm the pKa. […] The aqueous pKa was extrapolated from the apparent pKa measured in the presence of co-solvents, using the Yasuda-Shedlovsky extrapolation equation. […]

[2] = Spectrometric (UV-metric) pKa; settings: base; aqueous value by Yasuda-Shedlovsky extrapolation from methanol-water co-solvent; 25.0±0.2° C.; 0.15 M KCl
Procedure: as §1
The titrator module consisted of a temperature controller (by Peltier device with in-situ thermocouple), pH electrode, an overhead stirrer, and motorized dispensers for the automatic delivery of assay titrants and reagents via capillaries. The instrumentation was operated using SiriusT3Control software (V2.0). Data processing and generation of the reported pKa and logP values was carried out using SiriusT3Refine software (V2.0). The titrants used were 0.5 M hydrochloric acid and 0.5 M potassium hydroxide, standardized using potassium hydrogen phthalate. ACS or HPLC grade methanol cosolvent was used for pKa determination. Spectrophotometric experiments were carried out in the presence of a mid-range buffer solution (15 mM di-potassium hydrogen orthophosphate) or Neutral Linear Buffer™ to prevent uncontrolled pH-drift at mid-range pH. For logP assays, ACS or HPLC grade 1-octanol was used as the partition solvent.
All experiments were carried out at a controlled temperature of 25.0±0.2° C. […]

[3] = Aqueous solubility study (slurry in deionized water, HPLC); design: key to XRPD of residual solid, Wet / XRPD of residual solid, Dry: CRY: Crystalline
Procedure: The aqueous solubility of the crystalline Form I was assessed using the following procedure: • Approximately 10 mg of the dried material was slurried in deionized water (100 μL) at 20° C. with stirring. • Further aliquots of water (50 μL) were added until a mobile slurry was obtained. A total of 600 μL was used. • The slurry was stirred at 20° C. for 24 h then separated by centrifugation (0.22 μm nylon filter). • The residual solid was analyzed by XRPD and then dried under vacuum at ambient temperature (ca. 20° C.) for 72 h, prior to re-analysis by XRPD. The results are shown in FIG. 45. • The pH of the mother liquor was measured. • The mother liquors were analyzed by HPLC for purity and concentration.

[4] = Dynamic Vapour Sorption (DVS)
Procedure: The following results and observations were obtained from this experiment (see Table 4 for further details): • After anti-solvent addition to the solutions at 20° C., the experiment carried out using tBME as the initial solvent system had solid adhered to the vial walls. The experiments carried out using MEK and THF as the initial solvent systems were cloudy, with some oil/gum formation noted. • After temperature cycling overnight, all experiments formed slurries. […] (peak at 98° C.) during the first heat. A glass transition with a mid-point half-height of ca. 32° C. was observed during the first cool. […] The residual tBME could not be quantified, due to overlapping signals with the API. Residual heptane was observed, equal to 0.91% w/w, or 0.05 equivalents. • ^1H NMR spectroscopy of the crystalline Form I isolated from MEK:heptane 20:80 v/v % was consistent with the structure of the compound of Formula I free base. The residual MEK could not be quantified, due to overlapping signals with the API. Residual heptane was observed, equal to 0.51% w/w, or 0.02 equivalents. • ^1H NMR spectroscopy of the crystalline Form I isolated from THF:heptane 22:78 v/v % was consistent with the structure of the compound of Formula I free base. The residual THF could not be quantified, due to overlapping signals with the API.
Crystalline forms of the compound of Formula I, including the crystalline Form I, were analyzed using Dynamic Vapour Sorption (DVS). Approximately 10-15 mg of sample was placed into a mesh vapour sorption balance pan and loaded into a DVS Intrinsic dynamic vapour sorption balance by Surface Measurement Systems. The sample was subjected to a ramping profile from 40-90% relative humidity (RH) at 10% increments, maintaining the sample at each step until a stable weight had been achieved (dm/dt 0.004%, minimum step length 30 minutes, maximum step length 120 minutes) at 25° C. After completion of the sorption cycle, the sample was dried using the same procedure to 0% RH and then a second sorption cycle back to 40% RH was carried out. Two cycles were performed. The weight change during the sorption/desorption cycles were plotted, allowing the hygroscopic nature of the sample to be determined. XRPD analysis was then carried out on the residual solid.

Potentiometric (pH-metric) pKa [1]: confirmed the spectrometric pKa
pKa [2]: 7.74 ± 0.04
XRPD of residual solid, Dry ([3]; after slurrying in water and drying under vacuum 72 h): CRY
XRPD of residual solid, Wet ([3]; after slurrying in water at 20° C. for 24 h): CRY
solubility at 24 h ([3]; thermodynamic from solid, deionized water, 20° C., slurry stirred 24 h, HPLC, mother liquor pH 6.84, read-out: Aqueous Solubility (solution concentration)): 97 µg/mL (≈ 193 µM)
Form after slurrying in water (XRPD) ([3]; water, 20° C., and after drying): retained
DVS mass uptake ([4]; 25° C./80% RH, material isolated from tBME:heptane 50:50 v/v %): ca. 0.5 % w/w
Water Uptake (DVS, 25° C.) At 25° C./80%, RH ([4]; 25° C./80% RH, tBME:Heptane 50:50): 0.5%
Post-DVS XRPD ([4]; form after DVS analysis): retained; also recorded: Form I
Hygroscopicity (DVS) ([4]; material isolated from tBME:heptane 50:50 v/v %): slightly hygroscopic
Compound: COCCOc1cccc([C@@H]2CCN(CCn3cccc3)[C@H](C)[C@H]2COc2ccc3c(c2)C(=O)NC3)c1 [crystalline Form I, (−)-6-{[(trans, trans)-4-[3-(2-methoxyethoxy)phenyl]-2-methyl-1-[2-(1H-pyrrol-1-yl)ethyl]piperidin-3-yl]methoxy}-2,3-dihydro-1H-isoindol-1-one]
